# Data from US10399968B2, “Hydroxyalkyl thiadiazole derivatives” (Daiichi Sankyo Company, Limited, priority 2015, dated 2019).
# Like-named read-outs stand apart in the source and are kept apart here.
# Legend:
# S. aureus ATCC 29213 = assay: Susceptibility of bacteria, broth microdilution MIC; format: cell-based; details: Staphylococcus aureus, ATCC29213
# Experimental: The antibacterial activity of the compounds of the present invention was tested by the broth microdilution method. The assay was carried out according to the CLSI guidelines for managing the procedures of susceptibility tests: “M7-A7 Methods for Dilution Antimicrobial Susceptibility Tests for Bacteria That Grow Aerobically; Approved Standard-Seventh Edition (2006)”. Test strains were grown on appropriate agar plates overnight. A broth containing the test compound diluted serially 2-fold and diluents were dispensed at 100 μL to each well of a 96-well microplate. As a growth control, a well with a broth not containing the test compound was also prepared. Colonies grown on the plates were suspended in saline, adjusted to 0.5 McFarland (OD625=0.08 to 0.10) using a colorimeter, and then diluted 10-fold with saline. The bacterial suspension was inoculated at 4 μL into each well of the microplate using a bacterial suspension inoculation apparatus. The inoculated microplate was incubated at 35° C. overnight (about 20 hours). The growth condition was observed by the naked eye, and the minimum concentration to inhibit bacterial proliferation was defined as a minimum inhibitory concentration (MIC). The MICs of compounds disclosed herein for E. faecium, Streptococcus pneumoniae and Haemophilus influenzae are shown in Table 2, while for S. aureus in Table 3.
# [1] = system: Clostridium difficile ATCC 43255; assay: Susceptibility of Clostridium difficile, agar dilution MIC; format: cell-based; details: Clostridioides difficile, ATCC43255, anaerobic
# Experimental: The antibacterial activity of the compounds of the present invention against Clostridium difficile clinical isolates was tested by the agar dilution method. The assay was carried out according to the CLSI guidelines for managing the procedures of susceptibility tests “M11-A8, Methods for Antimicrobial Susceptibility Testing of Anaerobic Bacteria; Approved Standard-Eighth Edition. CLSI document (2012)”.
# The test strains were spread on supplemented Brucella agar (SBA) plates and grown at 36° C. under anaerobic condition for 42 to 48 hours. The test compound dilutions were prepared with Brucella broth and SBA plates containing dilution of test compound were prepared. As an anaerobic growth control, plates not containing the test compound were also prepared. Colonies grown on plates were suspended with Brucella broth to adjust the turbidity to 0.5 McFarland using a densitometer. Suspension (1-2 μL) of the test strains was inoculated onto each agar surface by using a bacterial suspension inoculation apparatus. After anaerobic incubation at 36° C. for 42 to 48 hours, absence and presence of growth of each strain were examined with unaided eye. The MIC was determined at which a marked reduction occurs in the appearance of growth on the test plate as compared to that of growth on the anaerobic control plates.
# [2] = Solubility in water (JP1 / JP2 fluids); format: physicochemical; details: thermodynamic from solid
# Experimental: A 10 mmol/L solution of the test compound was prepared in DMSO and dispensed 100 μL of 10 mmol/L DMSO stock solutions into labeled glass tubes in duplicate, one for Japanese Pharmacopeia First Fluid (JP1) and second for Japanese Pharmacopeia Second Fluid (JP2). After evaporation of DMSO from each tube, 500 μL of JP1 and JP2 fluid were added in each tube, respectively. These tubes were sonicated for 1 minute and placed on shaker for 30 minutes with an interval of 30 seconds at every 5 minute. Tubes were placed in dark at room temperature for 1 hour and solution was filtered through membrane filter. The filtrate was diluted 2-fold and 10-fold. The resulting test solutions was analyzed and quantified against the standards using UPLC (standard preparation—10 mmol/L solution in DMSO is serially diluted with 50% aqueous acetonitrile solution to prepare 2 solutions; 100 μmol/L standard solution and 5 μmol/L standard solutions).
# P. acnes ATCC 6523 = assay: Susceptibility of P. acnes, agar dilution MIC; format: cell-based; details: Cutibacterium acnes, ATCC6523, anaerobic
# Experimental: (§1) The antibacterial activity of the compounds of the present invention against P. acnes clinical isolates was tested by the agar dilution method. The assay was carried out according to the CLSI guidelines document (Clinical and Laboratory Standards Institute, 2012 & 2016). The test strains were spread on supplemented Brucella agar (SBA) plates and grown for 42 to 48 hours at 36° C. under anaerobic condition. The test compound dilutions were prepared with Brucella broth and SBA plates containing dilution of test compound were prepared. As an anaerobic growth control and to check the aerobic contamination, plates not containing the test compound were also prepared. Colonies grown on plates were suspended with Brucella broth to adjust the turbidity to 0.5 McFarland using a densitometer. Suspension (1-2 μL) of the test strains was inoculated onto each agar surface by using a bacterial suspension inoculation apparatus (multipoint inoculator). After anaerobic incubation for 42 to 48 hours at 36° C., absence and presence of growth of each strain on growth control plates and test compounds plate were examined with unaided eye. The MIC was determined at which a marked reduction occurs in the appearance of growth on the test plate as compared to that of growth on the anaerobic control plates.
# P. acnes ATCC 6921 = assay: Susceptibility of P. acnes, agar dilution MIC; format: cell-based; details: Cutibacterium acnes, ATCC6921, anaerobic
# Experimental: as §1
# P. acnes IHMA 103740 = assay: Susceptibility of P. acnes, agar dilution MIC; format: cell-based; details: Cutibacterium acnes, IHMA103740, anaerobic
# Experimental: as §1
# P. acnes IHMA 775486 = assay: Susceptibility of P. acnes, agar dilution MIC; format: cell-based; details: Cutibacterium acnes, IHMA775486, anaerobic
# Experimental: as §1
# [3] = molecular target: Clostridium difficile DNA gyrase (Clostridioides difficile, UniProt Q18C89); assay: DNA supercoiling inhibition assay; format: biochemical; details: supercoiling of relaxed pBR322 DNA, 60 minutes at 37° C.
# Clostridium difficile DNA gyrase, sequence (Q18C90 entry or part of it): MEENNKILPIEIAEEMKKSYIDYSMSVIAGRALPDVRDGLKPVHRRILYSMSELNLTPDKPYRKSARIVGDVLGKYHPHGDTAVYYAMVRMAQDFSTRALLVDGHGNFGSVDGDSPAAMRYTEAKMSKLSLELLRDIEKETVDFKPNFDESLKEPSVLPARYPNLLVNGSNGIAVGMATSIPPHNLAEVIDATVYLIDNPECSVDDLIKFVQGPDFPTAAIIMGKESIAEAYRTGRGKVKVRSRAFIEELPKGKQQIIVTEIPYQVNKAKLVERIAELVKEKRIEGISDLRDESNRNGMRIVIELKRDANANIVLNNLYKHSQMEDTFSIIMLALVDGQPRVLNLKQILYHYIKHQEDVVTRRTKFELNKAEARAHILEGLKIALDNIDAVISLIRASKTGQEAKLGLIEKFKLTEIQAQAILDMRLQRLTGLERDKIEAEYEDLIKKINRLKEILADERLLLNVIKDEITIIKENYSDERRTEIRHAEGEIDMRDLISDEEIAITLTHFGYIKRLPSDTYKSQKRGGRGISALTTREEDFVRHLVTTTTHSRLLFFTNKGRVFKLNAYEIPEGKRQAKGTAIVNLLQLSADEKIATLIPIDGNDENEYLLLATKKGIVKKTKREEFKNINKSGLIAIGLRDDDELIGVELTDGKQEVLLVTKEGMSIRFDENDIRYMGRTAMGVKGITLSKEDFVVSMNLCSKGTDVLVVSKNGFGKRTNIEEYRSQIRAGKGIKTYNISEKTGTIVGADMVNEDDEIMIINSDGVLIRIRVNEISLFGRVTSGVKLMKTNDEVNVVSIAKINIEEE
# Clostridium difficile DNA gyrase, sequence (Q18C89 entry or part of it): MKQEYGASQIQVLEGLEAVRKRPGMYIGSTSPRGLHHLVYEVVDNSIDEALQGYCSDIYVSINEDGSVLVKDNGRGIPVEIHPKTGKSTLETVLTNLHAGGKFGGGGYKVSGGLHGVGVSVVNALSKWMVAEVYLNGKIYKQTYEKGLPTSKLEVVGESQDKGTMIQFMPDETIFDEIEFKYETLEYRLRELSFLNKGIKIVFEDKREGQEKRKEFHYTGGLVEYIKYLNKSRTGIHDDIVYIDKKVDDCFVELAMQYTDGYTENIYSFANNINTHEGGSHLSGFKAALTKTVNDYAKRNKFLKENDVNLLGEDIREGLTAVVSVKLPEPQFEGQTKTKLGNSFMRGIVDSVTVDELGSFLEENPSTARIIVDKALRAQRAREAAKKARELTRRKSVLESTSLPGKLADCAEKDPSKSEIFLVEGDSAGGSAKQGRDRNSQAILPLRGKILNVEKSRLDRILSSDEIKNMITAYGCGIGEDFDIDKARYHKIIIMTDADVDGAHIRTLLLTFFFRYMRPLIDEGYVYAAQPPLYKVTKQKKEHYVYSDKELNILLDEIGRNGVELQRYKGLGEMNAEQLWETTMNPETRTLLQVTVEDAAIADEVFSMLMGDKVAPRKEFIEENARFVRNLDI
# Experimental: DNA supercoiling assays (30 μL reaction) were performed in a buffer containing 15 mM Tris-HCl pH 7.5, 13% glycerol, 6 mM MgCl2, 0.1 mg/mL BSA, 70 mM KCl, 1 mM dithioerythritol, 400 ng of DNA substrate (relaxed pBR322 DNA) and different concentrations of test compounds and/or standards. The dilutions of test compounds and standards were prepared in 20% dimethylsulfoxide (DMSO) and added 3 μL/reaction. The reaction was started by adding 2 μL amounts of Clostridium difficile DNA gyrase into the reaction mixtures and reactions were allowed to proceed for 60 minutes at 37° C. A reaction was carried out by adding 3 μL of 20% DMSO instead of test compound as full reaction control, and another reaction was carried out by adding sterile water instead of the enzyme as no reaction control.
# Reactions were stopped by the addition of 5 μL of 6×loading dye and were analyzed by electrophoresis through 1.0% agarose gels with 1×TAE running buffer. Gels were run at 60 V for 3 hours, stained with EtBr, and visualized by Gel Doc system (BioRad). Intensity of the supercoiled DNA bands was quantified, and the IC50 of Clostridium difficile DNA gyrase was calculated using Graph Pad Prism.
# [4] = system: Clostridium difficile 2009155, a NAP1/027 strain; assay: Hamster CDI model; format: in vivo; details: 0.3 mg/kg/day by oral route, 5 days
# Experimental: The in vivo efficacy of test compounds were evaluated in a hamster CDI model caused by Clostridium difficile 2009155, a NAP1/027 strain. Syrine hamsters (6-8-weeks old) were primed with a single subcutaneous injection of clindamycin (30 mg/kg) 1-5 days prior to infection. Hamsters were infected by oral gavage with 1 ml of spore suspension ([…]) prepared in PBS. The drug was administered to the hamsters 6 hours post infection by oral or subcutaneous route at an interval of 24 hours for 5 days. The death and survival of the non-treated group and the drug-administered group were recorded once daily for 35 days.
# E. faecium ATCC 29212 = assay: Susceptibility of bacteria, broth microdilution MIC; format: cell-based; details: Enterococcus faecium, ATCC29212
# Experimental: (§2) The antibacterial activity of the compounds of the present invention was tested by the broth microdilution method. The assay was carried out according to the CLSI guidelines for managing the procedures of susceptibility tests: “M7-A7 Methods for Dilution Antimicrobial Susceptibility Tests for Bacteria That Grow Aerobically; Approved Standard-Seventh Edition (2006)”. Test strains were grown on appropriate agar plates overnight. A broth containing the test compound diluted serially 2-fold and diluents were dispensed at 100 μL to each well of a 96-well microplate. As a growth control, a well with a broth not containing the test compound was also prepared. Colonies grown on the plates were suspended in saline, adjusted to 0.5 McFarland (OD625=0.08 to 0.10) using a colorimeter, and then diluted 10-fold with saline. The bacterial suspension was inoculated at 4 μL into each well of the microplate using a bacterial suspension inoculation apparatus. The inoculated microplate was incubated at 35° C. overnight (about 20 hours). The growth condition was observed by the naked eye, and the minimum concentration to inhibit bacterial proliferation was defined as a minimum inhibitory concentration (MIC).
# [5] = system: Haemophilus influenzae ATCC 49247; assay: as above; format: cell-based; details: ATCC49247
# Experimental: as §2
# [6] = system: Streptococcus pneumoniae ATCC 49619; assay: as above; format: cell-based; details: ATCC49619
# Experimental: as §2
# [7] = Japanese Pharmacopeia First Fluid (JP1), pH 1.2, simulated gastric fluid, read-out: Solubility JP1
# [8] = Japanese Pharmacopeia Second Fluid (JP2), pH 6.8, aqueous buffer, read-out: Solubility JP2
SMILES,MIC (S. aureus ATCC 29213) [µg/mL],MIC [1] [µg/mL],"solubility at 30 min [2, 7] [µg/mL]","solubility at 30 min [2, 8] [µg/mL]",MIC (P. acnes ATCC 6523) [µg/mL],MIC (P. acnes ATCC 6921) [µg/mL],MIC (P. acnes IHMA 103740) [µg/mL],MIC (P. acnes IHMA 775486) [µg/mL],IC50 [3] [nM],survival on day 35 [4] [%],MIC (E. faecium ATCC 29212) [µg/mL],MIC [5] [µg/mL],MIC [6] [µg/mL]
"CCc1[nH]c(C(=O)N[C@@H]2CCN(c3nnc(C(O)CO)s3)C[C@@H]2OC)nc1Cl (stereo in doubt) [Compound No. 8, 4-Chloro-N-[(3S,4R)-1-{5-[(1S)-1,2-dihydroxyethyl]-1,3,4-thiadiazol-2-yl}-3-methoxypiperidin-4-yl]-5-ethyl-1H-imidazole-2-carboxamide]",4,0.125,728,125,0.25,0.25,0.25,0.25,–,–,–,–,–
"CCc1[nH]c(C(=O)N[C@@H]2CCN(c3nnc(C(O)CO)s3)C[C@@H]2OC)nc1Cl (stereo in doubt) [Compound No. 9, 4-Chloro-N-[(3S,4R)-1-{5-[(1R)-1,2-dihydroxyethyl]-1,3,4-thiadiazol-2-yl}-3-methoxypiperidin-4-yl]-5-ethyl-1H-imidazole-2-carboxamide]",4,0.125,862,220,0.125,0.125,0.125,0.125,–,–,–,–,–
"CCc1[nH]c(C(=O)N[C@@H]2CCN(c3nnc(C(C)(O)CO)s3)C[C@@H]2OC)nc1Cl (stereo in doubt) [Compound No. 11, 4-Chloro-N-[(3S,4R)-1-{5-[(2S)-1,2-dihydroxypropan-2-yl]-1,3,4-thiadiazol-2-yl}-3-methoxypiperidin-4-yl]-5-ethyl-1H-imidazole-2-carboxamide]",1,0.06,884,264,–,–,–,–,27,100,–,–,–
"CCO[C@H]1CN(c2nnc(C(C)O)s2)CC[C@H]1NC(=O)c1nc(Cl)c(CC)[nH]1 (stereo partly drawn) [Compound No. 1, 4-Chloro-N-{(3S,4R)-3-ethoxy-1-[5-(1-hydroxyethyl)-1,3,4-thiadiazol-2-yl]piperidin-4-yl}-5-ethyl-1H-imidazole-2-carboxamide]",0.5,0.03,–,–,–,–,–,–,8.63,100,0.25,2,0.25
"CCc1[nH]c(C(=O)N[C@@H]2CCN(c3nnc(C(C)CO)s3)C[C@@H]2OC)nc1Cl (stereo partly drawn) [Compound No. 6, 4-Chloro-5-ethyl-N-{(3S,4R)-1-[5-(1-hydroxypropan-2-yl)-1,3,4-thiadiazol-2-yl]-3-methoxypiperidin-4-yl}-1H-imidazole-2-carboxamide]",0.5,0.125,–,–,0.125,0.125,0.25,0.25,–,–,–,–,–
"CCO[C@H]1CN(c2nnc(C(C)(C)O)s2)CC[C@H]1NC(=O)c1nc(Cl)c(CC)[nH]1 [Compound No. 7, 4-Chloro-N-{(3S,4R)-3-ethoxy-1-[5-(2-hydroxypropan-2-yl)-1,3,4-thiadiazol-2-yl]piperidin-4-yl}-5-ethyl-1H-imidazole-2-carboxamide]",0.5,0.125,–,611,–,–,–,–,–,–,–,–,–
